Key:
Test in all cases: relative viability (nuclei count vs DMSO), 5 days (fraction); higher = more cells survive
BEN = tested on: BEN
Summary of the method: (§1)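 Relative viability divides the nuclei count in treated wells by that in vehicle wells. Lung cancer cell lines were seeded in 1536-well plates, dosed by pin tool the next day, and fixed and stained after 5 days in one step with final 0.05% Triton X-100, 1% formaldehyde and 1 ug/ml Hoechst. Dosing was a single drug or a fixed anchor-drug dose plus five library-drug doses (not always all listed) in √10 steps, and values are medians of duplicate plates imaged at 4×.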

NCI-H2085 = tested on: NCI-H2085
Summary of the method: as §1

NCI-H1666 = tested on: NCI-H1666
Summary of the method: as §1

NCI-H596 = tested on: NCI-H596
Summary of the method: as §1

HARA = tested on: HARA
Summary of the method: as §1

NCI-H1651 = tested on: NCI-H1651
Summary of the method: as §1

CAL-12T = tested on: CAL-12T
Summary of the method: as §1

NCI-H727 = tested on: NCI-H727
Summary of the method: as §1

RERF-LC-KJ = tested on: RERF-LC-KJ
Summary of the method: as §1

NCI-H1734 = tested on: NCI-H1734
Summary of the method: as §1

NCI-H1975 = tested on: NCI-H1975
Summary of the method: as §1

NCI-H2126 = tested on: NCI-H2126
Summary of the method: as §1

NCI-H647 = tested on: NCI-H647
Summary of the method: as §1

NCI-H1944 = tested on: NCI-H1944
Summary of the method: as §1

NCI-H520 = tested on: NCI-H520
Summary of the method: as §1

A-427 = tested on: A-427
Summary of the method: as §1

NCI-H661 = tested on: NCI-H661
Summary of the method: as §1

NCI-H838 = tested on: NCI-H838
Summary of the method: as §1

NCI-H460 = tested on: NCI-H460
Summary of the method: as §1

LOU-NH91 = tested on: LOU-NH91
Summary of the method: as §1

LCLC-103H = tested on: LCLC-103H
Summary of the method: as §1

ABC-1 = tested on: ABC-1
Summary of the method: as §1

SW 900 = tested on: SW 900
Summary of the method: as §1

Compound: Cc1cn(-c2cc(NC(=O)c3ccc(C)c(Nc4nccc(-c5cccnc5)n4)c3)cc(C(F)(F)F)c2)cn1 [Nilotinib] + CCNC(=O)c1noc(-c2cc(C(C)C)c(O)cc2O)c1-c1ccc(CN2CCOCC2)cc1 [Luminespib] (partner 0.01 µM)
- relative viability (BEN; first compound 0.001 µM): 0.563
- relative viability (BEN; first compound 0.003162 µM): 0.275
- relative viability (BEN; first compound 0.01 µM): 0.378
- relative viability (BEN; first compound 0.03162 µM): 0.277
- relative viability (BEN; first compound 0.1 µM): 0.256
- relative viability (NCI-H2085; first compound 0.001 µM): 0.392
- relative viability (NCI-H2085; first compound 0.003162 µM): 0.46
- relative viability (NCI-H2085; first compound 0.01 µM): 0.427
- relative viability (NCI-H2085; first compound 0.03162 µM): 0.375
- relative viability (NCI-H2085; first compound 0.1 µM): 0.382
- relative viability (NCI-H1666; first compound 0.001 µM): 1.02
- relative viability (NCI-H1666; first compound 0.003162 µM): 1.01
- relative viability (NCI-H1666; first compound 0.01 µM): 1.1
- relative viability (NCI-H1666; first compound 0.03162 µM): 0.999
- relative viability (NCI-H1666; first compound 0.1 µM): 1.17
- relative viability (NCI-H596; first compound 0.001 µM): 1.16
- relative viability (NCI-H596; first compound 0.003162 µM): 1.05
- relative viability (NCI-H596; first compound 0.01 µM): 1.01
- relative viability (NCI-H596; first compound 0.03162 µM): 0.655
- relative viability (NCI-H596; first compound 0.1 µM): 0.833
- relative viability (HARA; first compound 0.001 µM): 0.569
- relative viability (HARA; first compound 0.003162 µM): 1.24
- relative viability (HARA; first compound 0.01 µM): 1.14
- relative viability (HARA; first compound 0.03162 µM): 0.842
- relative viability (HARA; first compound 0.1 µM): 0.482
- relative viability (NCI-H1651; first compound 0.001 µM): 0.78
- relative viability (NCI-H1651; first compound 0.003162 µM): 0.912
- relative viability (NCI-H1651; first compound 0.01 µM): 0.902
- relative viability (NCI-H1651; first compound 0.03162 µM): 0.711
- relative viability (NCI-H1651; first compound 0.1 µM): 0.753
- relative viability (CAL-12T; first compound 0.001 µM): 0.66
- relative viability (CAL-12T; first compound 0.003162 µM): 0.335
- relative viability (CAL-12T; first compound 0.01 µM): 0.665
- relative viability (CAL-12T; first compound 0.03162 µM): 0.222
- relative viability (CAL-12T; first compound 0.1 µM): 0.212
- relative viability (NCI-H727; first compound 0.001 µM): 0.349
- relative viability (NCI-H727; first compound 0.003162 µM): 0.516
- relative viability (NCI-H727; first compound 0.01 µM): 0.227
- relative viability (NCI-H727; first compound 0.03162 µM): 0.281
- relative viability (NCI-H727; first compound 0.1 µM): 0.344
- relative viability (RERF-LC-KJ; first compound 0.001 µM): 1.3
- relative viability (RERF-LC-KJ; first compound 0.003162 µM): 1.47
- relative viability (RERF-LC-KJ; first compound 0.01 µM): 1.34
- relative viability (RERF-LC-KJ; first compound 0.03162 µM): 0.946
- relative viability (RERF-LC-KJ; first compound 0.1 µM): 1.22
- relative viability (NCI-H1734; first compound 0.001 µM): 0.174
- relative viability (NCI-H1734; first compound 0.003162 µM): 0.168
- relative viability (NCI-H1734; first compound 0.01 µM): 0.208
- relative viability (NCI-H1734; first compound 0.03162 µM): 0.183
- relative viability (NCI-H1734; first compound 0.1 µM): 0.169
- relative viability (NCI-H1975; first compound 0.001 µM): 0.212
- relative viability (NCI-H1975; first compound 0.003162 µM): 0.143
- relative viability (NCI-H1975; first compound 0.01 µM): 0.171
- relative viability (NCI-H1975; first compound 0.03162 µM): 0.205
- relative viability (NCI-H1975; first compound 0.1 µM): 0.138
- relative viability (NCI-H2126; first compound 0.001 µM): 0.832
- relative viability (NCI-H2126; first compound 0.003162 µM): 1
- relative viability (NCI-H2126; first compound 0.01 µM): 1.1
- relative viability (NCI-H2126; first compound 0.03162 µM): 0.936
- relative viability (NCI-H2126; first compound 0.1 µM): 0.596
- relative viability (NCI-H647; first compound 0.001 µM): 0.228
- relative viability (NCI-H647; first compound 0.003162 µM): 0.194
- relative viability (NCI-H647; first compound 0.01 µM): 0.194
- relative viability (NCI-H647; first compound 0.03162 µM): 0.129
- relative viability (NCI-H647; first compound 0.1 µM): 0.161
- relative viability (NCI-H1944; first compound 0.001 µM): 0.627
- relative viability (NCI-H1944; first compound 0.003162 µM): 0.669
- relative viability (NCI-H1944; first compound 0.01 µM): 0.669
- relative viability (NCI-H1944; first compound 0.03162 µM): 0.694
- relative viability (NCI-H520; first compound 0.001 µM): 0.308
- relative viability (NCI-H520; first compound 0.01 µM): 0.244
- relative viability (NCI-H520; first compound 0.03162 µM): 0.223
- relative viability (NCI-H520; first compound 0.1 µM): 0.216
- relative viability (A-427; first compound 0.001 µM): 0.98
- relative viability (A-427; first compound 0.003162 µM): 0.948
- relative viability (A-427; first compound 0.03162 µM): 0.724
- relative viability (A-427; first compound 0.1 µM): 0.336
- relative viability (NCI-H661; first compound 0.001 µM): 1.01
- relative viability (NCI-H661; first compound 0.003162 µM): 0.961
- relative viability (NCI-H661; first compound 0.03162 µM): 1.01
- relative viability (NCI-H661; first compound 0.1 µM): 0.832
- relative viability (NCI-H838; first compound 0.001 µM): 0.24
- relative viability (NCI-H838; first compound 0.003162 µM): 0.276
- relative viability (NCI-H838; first compound 0.01 µM): 0.308
- relative viability (NCI-H838; first compound 0.03162 µM): 0.273
- relative viability (NCI-H838; first compound 0.1 µM): 0.208
- relative viability (NCI-H460; first compound 0.001 µM): 0.0351
- relative viability (NCI-H460; first compound 0.003162 µM): 0.0386
- relative viability (NCI-H460; first compound 0.01 µM): 0.0279
- relative viability (NCI-H460; first compound 0.03162 µM): 0.0273
- relative viability (NCI-H460; first compound 0.1 µM): 0.0271
- relative viability (LOU-NH91; first compound 0.001 µM): 0.318
- relative viability (LOU-NH91; first compound 0.003162 µM): 0.308
- relative viability (LOU-NH91; first compound 0.01 µM): 0.346
- relative viability (LOU-NH91; first compound 0.03162 µM): 0.276
- relative viability (LOU-NH91; first compound 0.1 µM): 0.321
- relative viability (LCLC-103H; first compound 0.001 µM): 0.971
- relative viability (LCLC-103H; first compound 0.003162 µM): 1.3
- relative viability (LCLC-103H; first compound 0.01 µM): 1.33
- relative viability (LCLC-103H; first compound 0.03162 µM): 0.927
- relative viability (LCLC-103H; first compound 0.1 µM): 0.919
- relative viability (ABC-1; first compound 0.001 µM): 0.508
- relative viability (ABC-1; first compound 0.003162 µM): 0.227
- relative viability (ABC-1; first compound 0.01 µM): 0.554
- relative viability (ABC-1; first compound 0.03162 µM): 1.28
- relative viability (ABC-1; first compound 0.1 µM): 0.252
- relative viability (SW 900; first compound 0.001 µM): 0.177
- relative viability (SW 900; first compound 0.003162 µM): 0.176
- relative viability (SW 900; first compound 0.01 µM): 0.164
- relative viability (SW 900; first compound 0.03162 µM): 0.186
- relative viability (SW 900; first compound 0.1 µM): 0.198
